Results taken from patent US20090030034A1, “USE OF FGF INHIBITING SUBSTITUTED 1,2,3 INDOLIZINE DERIVATIVES IN THE PREPARATION OF MEDICAMENTS WHICH CAN BE USED TO TREAT DISEASES LINKED TO PATHOLOGICAL CHOROIDAL ANGIOGENESIS” (SANOFI-AVENTIS, priority 2004, published 2009).

Tested on: laser-induced choroidal neovascularization
Assay: Laser induction of choroidal neovascularization in mice, oral treatment
Type: in vivo, C57BI6 mice
Conditions: 30 mg/kg/day orally during the last 7 days, day 14 after induction
Method: C57BI6 mice were used in these experiments. A model of laser-induced choroidal neovascularization (4 impacts per eye around the papilla) was applied to the animals as described by Tobe et al. Am. J. Pathol., 1998).
On day 14 after the induction and after monitoring by angiography, which makes it possible to estimate the percentage of lesions developing neovascularization, the animals are sacrificed and the eyeballs are enucleated for histological analysis. The mice are treated orally with one of the compounds of formula (I) during the last 7 days. The dose chosen for the monohydrate of the sodium salt of 2-amino-5-[(1-methoxy-2-methylindolizin-3-yl)carbonyl]benzoic acid is 30 mg/kg/day. The vehicle used is a 0.6% solution of methylcellulose in water.
Four mice are used for the control group and six mice for the treated group.
The size of the neovascular reaction is estimated from frozen sections by morphometric evaluations of the thickness using a computerized image analysis system. […]
Estimation is carried out by measuring the B/C ratio between, on the one hand, the EPR and the peak of the neovascular reaction (“B”), and, on the other hand, the thickness of the adjacent intact choroidal layer (“C”). This quantifying system was preferred to measuring surface areas of lesions as it is independent of the orientation of the histological sections.

With COc1c(C)c(C(=O)c2ccc(N)c(C(=O)O)c2)n2ccccc12 [2-amino-5-[(1-methoxy-2-methylindolizin-3-yl)carbonyl]benzoic acid] the “histological analysis and anti-CD31 immunohistochemistry of the laser impact sites” value was “only a moderate thickening of the choriocapillary where the impacts occurred, without obvious sign of neovascularization” and the “reduction of the laser-induced neovascular reaction, quantified by the B/C ratio, in comparison with the control mice” value (frozen sections, morphometric thickness, p<0.001) was ~50%.
